4 molecules from patent US9770026B2, “Substituted pyrimidine compound and uses thereof” (Shenyang Sinochem Agrochemicals R&D Co., Ltd., priority 2012, dated 2017) can be followed below.

Where only a bound is given, the exact number is not on record here.

Assay [1] deals with wheat powdery mildew. In words: protectant activity in vivo against wheat powdery mildew. Particulars: for pest or weed control at 400 µg/mL: read-out: control effect against wheat powdery mildew (%), 400 mg/L.
Assay [2] has as its system armyworm. In words: bioactivity test against armyworm, airbrush spray. Format: in vivo. As to conditions: for pest or weed control at 600 µg/mL: 600 mg/L; for control (test results against armyworm): mortality after 72 h.
In assay [3] the test system is carmine spider mite. In words: bioactivity test against carmine spider mite, airbrush spray. The format is in vivo. Particulars: for pest or weed control at 600 µg/mL / pest or weed control at 10 µg/mL / pest or weed control at 100 µg/mL: Tetranychus cinnabarinus, 72 h, read-out: Insecticidal activity against carmine spider mite (% ); for control against carmine spider mite: mortality after 72 hrs. In short, it runs like this:
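Broadbean seedlings infested with adult mites were sprayed with compound (acetone/methanol stock diluted in 0.1% Tween 80 water) by airbrush at 0.7 kg/cm^2, 0.5 ml. Three replicates were run. Mortality was scored after 72 hrs.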

The subject of assay [4] is corn rust. In words: protectant activity in vivo against corn rust. As to conditions: for pest or weed control at 400 µg/mL: read-out: control effect against corn rust (%), 400 mg/L.
Assay [5] has as its system rice blast. In words: microbe, parasite or virus in culture. Format: cell-based. Particulars: Pyricularia oryzae; for inhibition at 25 ppm: read-out: inhibition rate against rice blast, 25 ppm, in vitro.
Assay [6] relates to cucumber downy mildew. In words: protectant activity in vivo against cucumber downy mildew. As to conditions: Cucumis sativus, 168 h, protectant activity; for pest or weed control at 25 µg/mL: read-out: control effect against cucumber downy mildew (%), 25 mg/L; for pest or weed control at 50 µg/mL: read-out: control effect against cucumber downy mildew (%), 50 mg/L; for pest or weed control at 100 µg/mL: read-out: control effect against cucumber downy mildew (%), 100 mg/L; for pest or weed control at 400 µg/mL: read-out: control effect against cucumber downy mildew (%), 400 mg/L.

The subject of assay [7] is Diamond back moth. Briefly: insecticidal activity against diamond back moth, airbrush spray. Format: in vivo. Particulars: for pest or weed control at 600 µg/mL: 600 mg/L; for control (test results against diamond back moth): mortality after 72 hrs. A digest of the protocol: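 Airbrush leaf-disc spray test: both faces of 2 cm cabbage discs received 0.5 ml of test solution at 0.7 kg/cm^2. Solutions were made in acetone:methanol (1:1) and brought to concentration with 0.1% Tween 80 in water. Ten second-instar larvae per disc, triplicates, were held at 25° C and 60˜70% R.H., with mortality recorded at 72 hrs.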

The test system of assay [8] is Green peach aphids (Myzus Persicae Sulzer). In words: bioactivity test against green peach aphid, airbrush foliar spray. Format: in vivo. Particulars: for control (test results against green peach aphid): death rate after 48 hrs. In short, it runs like this: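 Death rate was scored at 48 hrs, held at 25±1 C and 60±5% RH, following airbrush foliar spray (0.5 mL, 10 psi) onto cabbage leaf discs bearing about 15-30 aphids. Test solutions: compound dissolved in 1:1 acetone:methanol, brought to concentration with 0.1% tween 80 water.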

Where [9] appears, read: Triticum aestivum, 168 h, protectant activity.
The mark [10] stands for this setting: 72 h, read-out: Insecticidal activity against armyworm (%).
The mark [11] stands for this setting: Zea mays, 168 h, protectant activity.
The mark [12] stands for this setting: Myzus persicae, foliar, 48 h, 10 mg/L, contrastive test, read-out: Insecticidal activity against peach aphid (%).
Setting [13] is: Myzus persicae, foliar, 48 h, 100 mg/L, contrastive test, read-out: Insecticidal activity against peach aphid (%).
Where [14] appears, read: Myzus persicae, foliar, 48 h, 600 mg/L, contrastive test, read-out: Insecticidal activity against peach aphid (%).

With `Cc1ncnc(NCc2ccc(Oc3ncc(Cl)cc3Cl)cc2)c1Cl` [CK37, reference compound], the results for the pest or weed control at 400 µg/mL in assay [1] (setting [9]), in assay [4] (setting [11]) and in assay [6] were 0%, 0% and 100%, respectively. Further, the pest or weed control at 600 µg/mL in assay [2] (setting [10]) is 0%; in assay [3] (600 mg/L, contrastive test), 0%; in assay [7] (72 h), 0%; in assay [8] (setting [14]) it was 100%. The inhibition at 25 ppm in assay [5] is less than 50%. Besides, in assay [6], the pest or weed control at 25 µg/mL is 0%. Besides, the pest or weed control at 50 µg/mL in assay [6] was 10%. In addition, the pest or weed control at 100 µg/mL in assay [6] was 20%; in assay [8] (setting [13]), 16%. The pest or weed control at 10 µg/mL in assay [8] (setting [12]) came to 0%.

For the molecule `CCC(Nc1ncnc(C)c1Cl)c1ccc(Oc2ccc(C(F)(F)F)cn2)cc1` (stereo not drawn) [CK41, reference compound], the pest or weed control at 6.25 µg/mL in assay [1] (Triticum aestivum, 168 h, read-out: control effect against wheat powdery mildew (%), 6.25 mg/L, protectant activity) came out at 0%; in assay [4] (Zea mays, 168 h, read-out: control effect against corn rust (%), 6.25 mg/L, protectant activity), 80%. The pest or weed control at 25 µg/mL is 50% in assay [1] (Triticum aestivum, 168 h, read-out: control effect against wheat powdery mildew (%), 25 mg/L, protectant activity) and 90% in assay [4] (Zea mays, 168 h, read-out: control effect against corn rust (%), 25 mg/L, protectant activity). Besides, the pest or weed control at 100 µg/mL in assay [1] (Triticum aestivum, 168 h, read-out: control effect against wheat powdery mildew (%), 100 mg/L, protectant activity) worked out at 70%; in assay [2] (72 h, 100 mg/L, read-out: Insecticidal activity against armyworm (%)) it was 0%; in assay [3] (100 mg/L, contrastive test), 99%; in assay [4] (Zea mays, 168 h, read-out: control effect against corn rust (%), 100 mg/L, protectant activity) it was 100%; in assay [7] (72 h, 100 mg/L), 53%; in assay [8] (setting [13]), 97%. The pest or weed control at 400 µg/mL in assay [1] (setting [9]) and in assay [4] (setting [11]) was 100% each time. The pest or weed control at 10 µg/mL in assay [2] (72 h, 10 mg/L, read-out: Insecticidal activity against armyworm (%)) was 0%; in assay [3] (10 mg/L, contrastive test) it was 0%; in assay [7] (72 h, 10 mg/L) it was 0%; in assay [8] (setting [12]), 23%. Also, the pest or weed control at 600 µg/mL was 100% in assay [2] (setting [10]); 100% in assay [3] (600 mg/L, contrastive test); 86% in assay [7] (72 h); 100% in assay [8] (setting [14]). Moreover, the pest or weed control at 0.4 µg/mL in assay [4] (Zea mays, 168 h, read-out: control effect against corn rust (%), 0.4 mg/L, protectant activity) is 0%. Besides, the pest or weed control at 1.6 µg/mL in assay [4] (Zea mays, 168 h, read-out: control effect against corn rust (%), 1.6 mg/L, protectant activity) came out at 20%. For the same molecule, the inhibition at 25 ppm in assay [5] was less than 50%. In assay [8] (Myzus persicae, foliar, 48 h, 2.5 mg/L, contrastive test, read-out: Insecticidal activity against peach aphid (%)), the pest or weed control at 2.5 µg/mL worked out at 0%. Also, the pest or weed control at 5 µg/mL in assay [8] (Myzus persicae, foliar, 48 h, 5 mg/L, contrastive test, read-out: Insecticidal activity against peach aphid (%)) was 15%.

`CC(Cl)c1ncnc(NCc2ccc(Oc3ccc(C(F)(F)F)cn3)cc2)c1Cl` (stereo not drawn) [CK43, reference compound]: the pest or weed control at 400 µg/mL in assay [1] (setting [9]) amounted to 20%; in assay [4] (setting [11]), 85%; in assay [6] it was 100%. Also, the pest or weed control at 600 µg/mL came out at 0% in assay [2] (setting [10]); 74% in assay [3] (600 mg/L, contrastive test); 0% in assay [7] (72 h); 0% in assay [8] (setting [14]). Also, the pest or weed control at 10 µg/mL in assay [3] (10 mg/L, contrastive test) worked out at 16%. Besides, the pest or weed control at 100 µg/mL came to 29% in assay [3] (100 mg/L, contrastive test) and 40% in assay [6]. Further, the inhibition at 25 ppm in assay [5] is less than 50%. In assay [6], the pest or weed control at 25 µg/mL was 0%. The pest or weed control at 50 µg/mL in assay [6] came to 20%.

With `CCc1ncnc(NCCc2ccc(Oc3ccc(C(F)(F)F)cn3)cc2)c1Cl` [Compound I-6758], the “protectant activity against wheat powdery mildew in vivo” value in assay [1] (100 ppm) and in assay [1] (400 ppm) was 100% in each case. For the same molecule, the “control (test results against armyworm)” value in assay [2] (100 ppm) and in assay [2] (600 ppm) was 100% in each case. Besides, the “Insecticidal activity against carmine spider mite (% )” value in assay [3] (2.5 mg/L) is reported as 79%; in assay [3] (5 mg/L) it was 82%; in assay [3] (10 mg/L, contrastive test), 99%; in assay [3] (100 mg/L, contrastive test), 100%; in assay [3] (600 mg/L, contrastive test) it was 100%. Besides, the “control against carmine spider mite” value in assay [3] (100 ppm) and in assay [3] (600 ppm) was 100% throughout. For the same molecule, the “protectant activity against corn rust in vivo” value in assay [4] (100 ppm) and in assay [4] (400 ppm) was 100% in each case. Besides, in assay [5] (read-out: inhibition rate against rice blast, 8.3 ppm, in vitro), the inhibition at 8.3 ppm lay in the range of 80 to 99%. The “control (test results against diamond back moth)” value in assay [7] (100 ppm) and in assay [7] (600 ppm) was 100% in each case. Besides, the “Insecticidal activity against peach aphid (%)” value in assay [8] (1.25 mg/L, contrastive test) is listed as 89%; in assay [8] (2.5 mg/L, contrastive test), 100%; in assay [8] (5 mg/L, contrastive test) it was 100%; in assay [8] (10 mg/L, contrastive test) it was 100%; in assay [8] (100 mg/L, contrastive test), 100%; in assay [8] (600 mg/L, contrastive test), 100%. The “control (test results against green peach aphid)” value in assay [8] (2.5 ppm), in assay [8] (5 ppm), in assay [8] (10 ppm), in assay [8] (100 ppm) and in assay [8] (600 ppm) was 100% throughout.
